Here are results for 6 compounds from patent US20250099433A1, “COMPOSITION AND METHOD FOR TREATMENT OF GRAM NEGATIVE BACTERIAL INFECTION” (The Research Foundation for the State University of New York, priority 2021, published 2025).

Data set [1] has as its system FabZ* E. coli. The class given is cell-based, Escherichia coli. To be noted: 1:1000 dilution; for PAE (h) 1x, FabZ*: 1xMIC for 1 h; for PAE (h) 4x, FabZ*: 4xMIC for 1 h; for PAE (h) 16x, FabZ*: 16xMIC for 1 h. From the text:
FIG. 4. Post-antibiotic effect of the ecLpxC inhibitors on wild-type and FabZ* E. coli.
This included use of an E. coli strain (FabZ*) containing a hyperactive mutant of the fatty acid biosynthesis O-hydroxyacyl-ACP enzyme (FabZ), and determination of PAEs for wild-type E. coli in the presence of sub-MIC concentrations of macrolides.

Data set [2] concerns E. coli strain (K-12, MG1655). Briefly: MIC by microbroth dilution, wild-type E. coli. The class given is cell-based, Escherichia coli. Particulars: wild-type E. coli K-12 MG1655.
The subject of data set [3] is wild-type E. coli (K12 MG1655). Description: PAE in wild-type E. coli in the presence of sub-MIC azithromycin. The class given is cell-based, Escherichia coli. Particulars: 16xMIC, 37° C.; for PAE (h) (sub-MIC AZ) 16x(0.2): then media with 0.2xMIC azithromycin; for PAE (h) (sub-MIC AZ) 16x(0.4): then media with 0.4xMIC azithromycin. The text has this:
FIG. 6. Post-antibiotic effect in the presence of sub-MIC azithromycin.
The PAE measurements were repeated for wild-type E. coli in the presence of sub-MIC levels of the protein synthesis inhibitor azithromycin.

The target in data set [4] is T1, paLpxC (Pseudomonas aeruginosa (strain ATCC 15692 / DSM 22644 / CIP 104116 / JCM 14847 / LMG 12228 / 1C / PRS 101 / PAO1), UniProt P47205). Description: biochemical. To be noted: for Ki / tR (min) Fluorescence assay: 37° C.; for Ki: fluorescence competition; for tR (min) Fluorescence assay: tR = 1/koff; for koff: read-out: Koff (s^−1); for kon: read-out: Kon (μM^−1s^−1). The class given is binding.

The test system of data set [5] is P. aeruginosa PAO1. Briefly: MIC by microbroth dilution, P. aeruginosa PAO1. Particulars: Pseudomonas aeruginosa, PAO1, read-out: MIC (μM) (PAO1). (Dilution methods test growth across graded concentrations, often in twofold steps.)
The test system of data set [6] is wild-type E. coli (K-12 MG1655). Description: Post-antibiotic effect (PAE) in wild-type E. coli. Particulars: 1:1000 dilution; for PAE (h) 1x, Wild-type: 1xMIC for 1 h; for PAE (h) 4x, Wild-type: 4xMIC for 1 h; for PAE (h) 16x, Wild-type: 16xMIC for 1 h. The class given is cell-based, Escherichia coli. The text has this: FIG. 4. Post-antibiotic effect of the ecLpxC inhibitors on wild-type and FabZ* E. coli. […] PAE data for wild-type E. coli are in panels (a) PT805, (c) PT810 and (e) CHIR-090, and for FabZ* E. coli in (b) PT805, (d) PT810 and (f) CHIR-090.
PAE data for wild-type E. coli are in panels (a) PT805, (c) PT810 and (e) CHIR-090, and for FabZ* E. coli in (b) PT805, (d) PT810 and (f) CHIR-090.

Data set [7] relates to efflux-pump mutant strain (ΔMexABCDXY) (paEP). Briefly: MIC by microbroth dilution, efflux-pump mutant P. aeruginosa. Particulars: Pseudomonas aeruginosa, read-out: MIC (μM) (paEP).
Source text: Bacterial Strains. […] The efflux-pump deficient P. aeruginosa strain (ΔMexABCDXY), N150, was derived from PAO1.
Minimum Inhibitory Concentration (MIC) Measurements.
Data set [8] relates to wild-type E. coli and FabZ* E. coli. Description: Time kill assays in E. coli. Particulars: 4xMIC (16xMIC in FIG. 3), CaMH media, 37° C.
Procedure: Each time point was performed in duplicate or triplicate and the entire experiment was performed in triplicate. The data points in the figure are the mean values from the independent measurements and the error bars represent the standard deviation from the mean.
The antimicrobial activity of the compounds was examined. […] The post-antibiotic effect (PAE) of the inhibitors was measured by monitoring the regrowth of bacteria following compound washout. […] Bacterial regrowth was monitored by plating samples as a function of time after wash-out and enumerating CFUs.
Data set [9] concerns the target ecLpxC (Escherichia coli (strain K12), UniProt P0A725). The class given is binding. Particulars: residence time on ecLpxC at 25° C., displacement by fluorescent ligand. As to the method:
Compounds were preincubated with ecLpxC and then mixed with a fluorescent LpxC inhibitor PT900.

The test system of data set [10] is FabZ*, hyperactive FabZ strain (L85P). Description: microbe, parasite or virus in culture. The class given is cell-based, Escherichia coli. Particulars: for MIC: Escherichia coli, read-out: MIC (μM) FabZ*.
Data set [11] concerns the target LpxC from E. coli (Escherichia coli (strain K12), UniProt P0A725). To be noted: cited from earlier work.
For data set [12] the following is noted: in vivo; cited from earlier work.
Data set [13] has as its system P. aeruginosa PAO1. Briefly: Post-antibiotic effect (PAE) in P. aeruginosa PAO1. Particulars: 37° C.; for PAE (h) 4x: PAO1, 4xMIC for 1 h; for PAE (h) 8x: PAO1, 8xMIC for 1 h; for PAE (h) 16x: PAO1, 16xMIC for 1 h.
Procedure: Post-antibiotic effect of the paLpxC inhibitors on wild-type P. aeruginosa. […] The experimental data points are the mean values from triplicate, independent measurements, and the error bars represent the standard deviation from the mean.
After incubating the plates overnight at 37° C., CFUs were enumerated, and the PAE values were calculated using a standard method where the time for the bacteria to recover 1 log post drug washout compared to the control was determined (FIG. 17, Table 6).
Post-antibiotic Effect (PAE). PAEs were determined using P. aeruginosa PAO1. […] The compound was washed out by diluting the culture 1000-fold into fresh CAMH-II medium, and the regrowth of bacteria was monitored by taking 100 μL aliquots each hour and plating serial dilutions on Muller-Hinton agar plates.
Data set [14] has as its system P. aeruginosa PAO1. Briefly: Time-kill assays in P. aeruginosa PAO1. Particulars: PAO1, 4x, 8x and 16xMIC, CAMH media, 37° C.
Procedure: Time-kill assays. […] The experimental data points are the mean values from triplicate, independent measurements, and the error bars represent the standard deviation from the mean.
Time-Kill Assays. […] Cultures were shaken at 37° C. for 6 h, and 100 μL aliquots were taken at each 1 h time interval and plated in serial dilutions in a Mueller-Hinton agar plate.
Data set [15] concerns the target LpxC from Aquifex aeolicus (aaLpxC) (Aquifex aeolicus (strain VF5), UniProt O67648). Particulars: cited from earlier work.
For data set [16], the target named is T1, paLpxC. Description: Spin column (Penefsky) residence time assay on paLpxC. The class given is binding. Particulars: 37° C. As to the method:
FIG. 14. Spin-column assay. A spin-column assay was used to quantify the residence time of inhibitors on paLpxC at 37° C. […] Samples were then subjected to size exclusion chromatography at different times using a Spin-Trap G-25 column (800×g for 2 min). […] Preincubated solutions of enzyme (10 μM) and inhibitor (10 or 20 μM) were diluted 200-fold into a solution of PT855 (1 μM) at 37° C. Aliquots of this solution were withdrawn at various times and subjected to centrifugal gel filtration chromatography using PD SpinTrap™ G-25 columns. The fluorescence of the eluate was quantified, and the data were fit to a single exponential equation to obtain koff (FIG. 14, Tables 4 and 5).
Inhibitor Residence Time Measurements using a Spin Column Assay. […] Subsequently, 10 μL of the incubation mixture was diluted into 2 mL of the same buffer containing 1 μM of PT855, and 100 μL of this mixture was then aliquoted at different time points and loaded onto a PD SpinTrap™ G-25 column (Cytiva) that had been equilibrated with buffer prior to sample loading. […] The fluorescence intensities corresponding to loading diluted EI without the fluorescent competitor and loading the competitor alone were measured separately to determine the dynamic range and endpoint of the assay. […] Rates were calculated by fitting the change in fluorescence intensity over time to a one-phase association equation in GraphPad Prism.

Molecules are shown by their SMILES. Converted amounts (≈) assume the structure as drawn. “And” between values parts separate entries of the source, which are not always exact repeats. Equal entries are not always repeated. Some results are limits rather than exact numbers.

T1 sequence (P47205 1-299): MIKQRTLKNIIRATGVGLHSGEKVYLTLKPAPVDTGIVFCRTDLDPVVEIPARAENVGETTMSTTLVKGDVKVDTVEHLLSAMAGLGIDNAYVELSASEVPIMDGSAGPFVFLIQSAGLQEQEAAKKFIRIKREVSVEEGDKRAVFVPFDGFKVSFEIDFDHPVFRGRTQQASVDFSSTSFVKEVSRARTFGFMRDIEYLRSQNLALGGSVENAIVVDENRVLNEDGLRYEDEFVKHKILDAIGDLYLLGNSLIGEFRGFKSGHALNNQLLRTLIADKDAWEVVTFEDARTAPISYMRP
LpxC from E. coli, sequence (P0A725 whole entry): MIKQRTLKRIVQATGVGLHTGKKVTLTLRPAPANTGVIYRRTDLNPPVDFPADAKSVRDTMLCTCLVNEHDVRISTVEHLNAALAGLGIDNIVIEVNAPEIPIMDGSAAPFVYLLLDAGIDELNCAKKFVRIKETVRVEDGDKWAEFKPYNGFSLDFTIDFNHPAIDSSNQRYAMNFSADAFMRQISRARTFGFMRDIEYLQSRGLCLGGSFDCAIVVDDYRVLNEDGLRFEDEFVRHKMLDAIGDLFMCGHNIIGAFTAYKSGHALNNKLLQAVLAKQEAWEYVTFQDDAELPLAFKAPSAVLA
LpxC from Aquifex aeolicus (aaLpxC), sequence (O67648 whole entry): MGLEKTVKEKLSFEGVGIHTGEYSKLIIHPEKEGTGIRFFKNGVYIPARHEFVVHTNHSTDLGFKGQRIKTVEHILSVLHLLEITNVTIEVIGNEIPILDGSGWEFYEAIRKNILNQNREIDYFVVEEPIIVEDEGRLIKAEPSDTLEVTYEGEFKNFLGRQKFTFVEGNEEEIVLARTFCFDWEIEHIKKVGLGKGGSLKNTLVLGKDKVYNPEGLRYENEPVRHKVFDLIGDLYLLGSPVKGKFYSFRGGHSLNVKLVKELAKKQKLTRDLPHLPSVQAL

With `CC(CCn1ccc(-c2ccc(-c3cn(Cc4ccccc4)nn3)cc2)cc1=O)(C(=O)NO)S(C)(=O)=O` (racemic) [PT810, 4-(4-(4-(1-Benzyl-1H-1,2,3-triazol-4-yl)phenyl)-2-oxopyridin-1(2H)-yl)-N-hydroxy-2-methyl-2-(methylsulfonyl)butanamide], in data set [1], the “PAE (h) 1x, FabZ*” value stood at 0.7 ± 0.2 h; the “PAE (h) 4x, FabZ*” value is 0.76 ± 0.19 h and 0.8 ± 0.2 h; the “PAE (h) 16x, FabZ*” value is 0.9 ± 0.2 h. Also, in data set [2] (Escherichia coli), the MIC was found to be 0.17 µM (≈ 0.0887 µg/mL). Further, in [3], the “PAE (h) (sub-MIC AZ) 16x(0.2)” value is reported as 1.9 ± 0.8 h and the “PAE (h) (sub-MIC AZ) 16x(0.4)” value turned out to be 2.6 ± 0.8 h. In [4], the Ki stood at 10.6 ± 8.9 pM; the “tR (min) Fluorescence assay” value was 57 min and 57.3 ± 18.4 min; the koff turned out to be 0.00032 ± 0.0001 s⁻¹; the kon amounted to 43.8 ± 31.7 µM⁻¹ s⁻¹. Besides, the MIC in [5] was found to be 12.5 µM (≈ 6.52 µg/mL). In data set [6], the “PAE (h) 1x, Wild-type” value came to 0 h; the “PAE (h) 4x, Wild-type” value worked out at 0 h; the “PAE (h) 16x, Wild-type” value amounted to 0 h. The MIC in data set [7] is 0.78 µM (≈ 0.407 µg/mL). Further, the “reduction of the starting log CFU/mL of the bacterial culture” value in data set [8] is recorded as “greater than 3 logs”. In data set [9], the “tR” value is 6 ± 3 min. Further, the MIC in data set [10] came out at 0.08 µM (≈ 0.0417 µg/mL).
For the compound `CC(O)(C(F)F)C(NC(=O)c1ccc(C#CC#Cc2ccc(N)cc2)cc1)C(=O)NO` (centres unmarked) [LPC-058], the “residence time on LpxC from E. coli” value in data set [11] is ~12 h.
`CC(C)(N)[C@H](NC(=O)c1ccc(C#CC#C[C@@H]2C[C@H]2CO)cc1)C(=O)NO` [ACHN-975]: the “toxicity in clinical trials” value in data set [12] is given as “dose-limiting cardiovascular toxicity”.
On to `CC(CCn1ccc(-c2ccc(-n3nccn3)cc2)cc1=O)(C(=O)NO)S(C)(=O)=O` (racemic) [PT805, 4-(4-(4-(2H-1,2,3-Triazol-2-yl)phenyl)-2-oxopyridin-1(2H)-yl)-N-hydroxy-2-methyl-2-(methylsulfonyl)butanamide], for which, in data set [1], the “PAE (h) 1x, FabZ*” value is listed as 0.8 ± 0.1 h; the “PAE (h) 4x, FabZ*” value was 1.53 ± 0.13 h and 1.5 ± 0.1 h; the “PAE (h) 16x, FabZ*” value is 2.1 ± 0.2 h. The MIC in [2] (Escherichia coli) came to 0.16 µM (≈ 0.069 µg/mL). Moreover, in data set [13], the “PAE (h) 4x” value is recorded as 1.4 ± 0.1 h, the “PAE (h) 8x” value was determined as 2.2 ± 0.3 h and the “PAE (h) 16x” value is listed as 3.4 ± 0.2 h. The “reduction of the starting log CFU/mL of the bacterial culture” value in data set [14] was “more than 3 logs”. In addition, in data set [3], the “PAE (h) (sub-MIC AZ) 16x(0.2)” value was determined as 1.4 ± 0.1 h and the “PAE (h) (sub-MIC AZ) 16x(0.4)” value is 2.4 ± 0.1 h. The MIC in [5] turned out to be 1.56 µM (≈ 0.673 µg/mL). In [6], the “PAE (h) 1x, Wild-type” value came to 0 h; the “PAE (h) 4x, Wild-type” value stood at 0 h; the “PAE (h) 16x, Wild-type” value was determined as 0 h. In addition, the MIC in data set [7] is 0.4 µM (≈ 0.173 µg/mL). Besides, the “reduction of the starting log CFU/mL of the bacterial culture” value in data set [8] is listed as “greater than 3 logs”. Besides, the MIC in [10] was determined as 0.019 µM (≈ 0.0082 µg/mL).
For the compound `C[C@@H](O)[C@H](NC(=O)c1ccc(C#Cc2ccc(CN3CCOCC3)cc2)cc1)C(=O)NO` [CHIR-090], in [1], the “PAE (h) 1x, FabZ*” value came to 0.5 ± 0.1 h; the “PAE (h) 4x, FabZ*” value is 1.34 ± 0.04 h and 1.3 ± 0.3 h; the “PAE (h) 16x, FabZ*” value was 2.4 ± 0.2 h. The compound also came in with an MIC in data set [2] of 0.62 µM (≈ 0.271 µg/mL). In data set [3], the “PAE (h) (sub-MIC AZ) 16x(0.2)” value is given as 2.8 ± 0.3 h and the “PAE (h) (sub-MIC AZ) 16x(0.4)” value worked out at 3.7 ± 0.2 h. Further, the “residence time on aaLpxC” value in [15] is on record as > 24 h. Besides, in data set [6], the “PAE (h) 1x, Wild-type” value stood at 0 h; the “PAE (h) 4x, Wild-type” value is recorded as 0 h; the “PAE (h) 16x, Wild-type” value came out at 0 h. The “reduction of the starting log CFU/mL of the bacterial culture” value in data set [8] is listed as “greater than 3 logs”. In addition, in data set [9], the “tR” value worked out at 66 ± 30 min. Further, the “MIC (μM) FabZ*” value in data set [10] (hyperactive FabZ strain (L85P)) came to 0.010 µM (≈ 0.00437 µg/mL).
Regarding `CC(CCn1ccc(-c2ccc(-c3cn(Cc4ccc(F)cc4)nn3)cc2)cc1=O)(C(=O)NO)S(C)(=O)=O` (racemic) [PT909, 4-(4-(4-(1-(4-fluorobenzyl)-1H-1,2,3-triazol-4-yl)phenyl)-2-oxopyridin-1(2H)-yl)-N-hydroxy-2-methyl-2-(methylsulfonyl)butanamide], the “tR (min) (Spin column assay)” value in data set [16] (direct displacement) was 106 ± 25 min and 106.2 ± 25.0 min. For the same compound, the “k (min^−1), spin-column assay” value in data set [16] (first-order fit) turned out to be 0.009 ± 0.002 min⁻¹. In addition, in data set [13], the “PAE (h) 4x” value was determined as 1.7 ± 0.1 h, the “PAE (h) 8x” value was 2.5 ± 0.1 h and the “PAE (h) 16x” value stood at 3.5 ± 0.2 h. For the same compound, the “reduction of the starting log CFU/mL of the bacterial culture” value in data set [14] is listed as “more than 3 logs”. In addition, in [4], the Ki amounted to 8 ± 2.3 pM, the “tR (min) Fluorescence assay” value came to 68.2 ± 9.6 min, the koff stood at 0.00025 ± 3e-05 s⁻¹ and the kon was 33.8 ± 13.6 µM⁻¹ s⁻¹. For the same compound, the MIC in [5] was 1.56 µM (≈ 0.842 µg/mL). Besides, in data set [7], the MIC was determined as 0.05 µM (≈ 0.027 µg/mL).

For orientation: Ki means the dissociation constant of the complex between target and ligand, obtained from inhibition or displacement. What is called koff is the rate constant with which the complex falls apart. The kon is the rate constant with which the complex forms.
